Where “and” joins values, the source holds several entries; their conditions need not be identical. Equal entries are not always repeated. Inconclusive results and toxic doses are left out.
Tested on: BDF1 mice, P388 leukemia ip, median survival T/C
Assay: NCI In Vivo Anticancer Drug Screen. Data for tumor model P388 Leukemia (intraperitoneal) in B6D2F1 (BDF1) mice
Settings: endpoint: median survival time, higher = longer survival
Outline: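 Compound-treated tumour-bearing mice were compared with vehicle-treated controls. Survival was recorded, and the value is the treated-group measurement divided by the control-group measurement (T/C).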

[1] = dose: 100.0 mg/kg/injection, schedule: Q01DX009 (ip), vehicle: saline with Tween-80
[2] = dose: 50.0 mg/kg/injection, schedule: Q01DX009 (ip), vehicle: saline with Tween-80
[3] = dose: 200.0 mg/kg/injection, schedule: Q01DX009 (ip), vehicle: saline with Tween-80
[4] = dose: 400.0 mg/kg/injection, schedule: Q01DX009 (ip), vehicle: saline with Tween-80
[5] = dose: 25.0 mg/kg/injection, schedule: Q04DX003 (ip), vehicle: saline
[6] = dose: 50.0 mg/kg/injection, schedule: Q04DX003 (ip), vehicle: saline
[7] = dose: 100.0 mg/kg/injection, schedule: Q04DX003 (ip), vehicle: saline with Tween-80
[8] = dose: 200.0 mg/kg/injection, schedule: Q04DX003 (ip), vehicle: saline with Tween-80
[9] = dose: 400.0 mg/kg/injection, schedule: Q04DX003 (ip), vehicle: saline with Tween-80
[10] = dose: 25.0 mg/kg/injection, schedule: Q01DX009 (ip), vehicle: saline with Tween-80
[11] = dose: 50.0 mg/kg/injection, schedule: Q04DX003 (ip), vehicle: saline with Tween-80
[12] = dose: 300.0 mg/kg/injection, schedule: Q04DX003 (ip), vehicle: saline with Tween-80
[13] = dose: 25.0 mg/kg/injection, schedule: Q04DX003 (ip), vehicle: saline with Tween-80
[14] = dose: 12.5 mg/kg/injection, schedule: Q01DX009 (ip), vehicle: saline with Tween-80

## O=c1[nH]c2ccc(Br)cc2c(=O)o1
dose: 25.0 mg/kg/injection, schedule: Q01DX001 (ip), vehicle: Klucel (hydroxypropylcellulose) (HPC)
  T/C: 104 % of control
dose: 35.0 mg/kg/injection, schedule: Q01DX001 (ip), vehicle: Klucel (hydroxypropylcellulose) (HPC)
  T/C: 109 % of control
dose: 50.0 mg/kg/injection, schedule: Q01DX001 (ip), vehicle: Klucel (hydroxypropylcellulose) (HPC)
  T/C: 104 % of control
dose: 75.0 mg/kg/injection, schedule: Q01DX001 (ip), vehicle: Klucel (hydroxypropylcellulose) (HPC)
  T/C: 95 % of control
[1]
  T/C: 150 % of control
dose: 250.0 mg/kg/injection, schedule: Q01DX001 (ip), vehicle: Klucel (hydroxypropylcellulose) (HPC)
  T/C: 92 % of control
dose: 400.0 mg/kg/injection, schedule: Q01DX001 (ip), vehicle: Klucel (hydroxypropylcellulose) (HPC)
  T/C: 88 % of control

## c1ccc2c(c1)-c1cccc3cccc-2c13
[2]
  T/C: 98 % of control
[1]
  T/C: 102 % of control
[3]
  T/C: 100 % of control

## c1ccc(-c2cc(-c3ccccc3)on2)cc1
[1]
  T/C: 95 % of control
[3]
  T/C: 109 % of control
[4]
  T/C: 104 % of control

## C1CCC2C(C1)NC1CCCCC12 (stereo not drawn)
dose: 12.0 mg/kg/injection, schedule: Q04DX003 (ip), vehicle: saline
  T/C: 109 % of control
dose: 12.5 mg/kg/injection, schedule: Q01DX001 (ip), vehicle: saline sonified
  T/C: 100 % of control
dose: 25.0 mg/kg/injection, schedule: Q01DX001 (ip), vehicle: saline sonified
  T/C: 90 % of control
dose: 25.0 mg/kg/injection, schedule: Q01DX009 (ip), vehicle: saline
  T/C: 112 % of control
[5]
  T/C: 95 % of control
dose: 50.0 mg/kg/injection, schedule: Q01DX001 (ip), vehicle: saline sonified
  T/C: 90 % of control
dose: 50.0 mg/kg/injection, schedule: Q01DX009 (ip), vehicle: saline
  T/C: 104 % of control
[6]
  T/C: 109 % of control

## NC(=S)c1nn(C2OC(CO)C(O)C2O)c2ncnc(N)c12 (stereo not drawn)
dose: 0.37 mg/kg/injection, schedule: Q01DX009 (ip), vehicle: saline
  T/C: 111 % of control
dose: 0.75 mg/kg/injection, schedule: Q01DX009 (ip), vehicle: saline
  T/C: 116 % of control

## OCC#CCO
dose: 12.0 mg/kg/injection, schedule: Q01DX001 (ip), vehicle: saline
  T/C: 95 % of control
dose: 25.0 mg/kg/injection, schedule: Q01DX001 (ip), vehicle: saline
  T/C: 113 % of control
dose: 50.0 mg/kg/injection, schedule: Q01DX001 (ip), vehicle: saline
  T/C: 109 % of control

## S=c1[nH]nc2n1NC(c1ccccc1)=NN2
[7]
  T/C: 91 % of control
[8]
  T/C: 87 % of control
[9]
  T/C: 95 % of control

## N#CC(C#N)C1c2ccccc2C([N+](=O)[O-])c2ccccc21 (stereo not drawn)
[1]
  T/C: 112 % of control
[3]
  T/C: 116 % of control
[4]
  T/C: 112 % of control

## O=C1OC(c2ccccc2)=C/C1=C/c1ccc([N+](=O)[O-])cc1
[10]
  T/C: 104 % of control
[2]
  T/C: 90 % of control
[11]
  T/C: 105 % of control
[1]
  T/C: 100 % of control
[7]
  T/C: 109 % of control
[3]
  T/C: 92 % of control
[8]
  T/C: 99 % of control and 104 % of control
[12]
  T/C: 87 % of control
[4]
  T/C: 92 % of control
[9]
  T/C: 96 % of control
dose: 600.0 mg/kg/injection, schedule: Q04DX003 (ip), vehicle: saline with Tween-80
  T/C: 91 % of control

## FC(F)(F)c1ccc2c(c1)N(CCCN1CCN(CCN3CCOCC3)CC1)c1ccccc1S2
dose: 12.5 mg/kg/injection, schedule: Q04DX003 (ip), vehicle: saline
  T/C: 99 % of control and 100 % of control
[5]
  T/C: 86 % of control and 99 % of control
[6]
  T/C: 104 % of control and 112 % of control

## Oc1ccc2ccccc2c1/C=N\Sc1ccc(Br)cc1
[13]
  T/C: 103 % of control
[11]
  T/C: 100 % of control
[7]
  T/C: 112 % of control

## CC(C)c1ccc(NC(=O)Nc2cccc3ccccc23)cc1
dose: 50.0 mg/kg/injection, schedule: Q01DX001 (ip), vehicle: saline with Tween-80
  T/C: 95 % of control
dose: 100.0 mg/kg/injection, schedule: Q01DX001 (ip), vehicle: saline with Tween-80
  T/C: 109 % of control
dose: 200.0 mg/kg/injection, schedule: Q01DX001 (ip), vehicle: saline with Tween-80
  T/C: 100 % of control

## COC(=O)C1(C(=O)OC)N=C(C)OO1
[2]
  T/C: 121 % of control
[1]
  T/C: 112 % of control

## COc1cc(C=Nc2cccc(Cl)c2)ccc1N(CCCl)CCCl
dose: 8.0 mg/kg/injection, schedule: Q04DX003 (ip), vehicle: saline with Tween-80
  T/C: 195 % of control
[14]
  T/C: 187 % of control
dose: 16.0 mg/kg/injection, schedule: Q04DX003 (ip), vehicle: saline with Tween-80
  T/C: 187 % of control
[10]
  T/C: 187 % of control
dose: 33.0 mg/kg/injection, schedule: Q04DX003 (ip), vehicle: saline with Tween-80
  T/C: 207 % of control
[2]
  T/C: 95 % of control
[11]
  T/C: 230 % of control

## Cn1ncc2c(NCc3ccc(Cl)cc3)ncnc21
dose: 6.25 mg/kg/injection, schedule: Q01DX009 (ip), vehicle: saline with Tween-80
  T/C: 97 % of control
[14]
  T/C: 101 % of control
[10]
  T/C: 93 % of control
[2]
  T/C: 97 % of control

## CCC1CC[N-]CC1.CCC1CC[N-]CC1.[Cl][Pt+2]([Cl])([Cl])[Cl]
dose: 3.12 mg/kg/injection, schedule: Q01DX009 (ip), vehicle: saline
  T/C: 107 % of control
dose: 6.25 mg/kg/injection, schedule: Q01DX009 (ip), vehicle: saline
  T/C: 110 % of control
dose: 12.5 mg/kg/injection, schedule: Q01DX009 (ip), vehicle: saline
  T/C: 110 % of control

## CCOc1ccc(N2CC(=O)N3CCCN3C(=O)C2)cc1
dose: 100.0 mg/kg/injection, schedule: Q01DX005 (ip), vehicle: saline with Tween-80
  T/C: 88 % of control

## Clc1ccc2c(c1)Cc1cc(N=Cc3ccccc3Cl)ccc1-2
dose: 42.5 mg/kg/injection, schedule: Q01DX001 (ip), vehicle: other
  T/C: 86 % of control
dose: 85.0 mg/kg/injection, schedule: Q01DX001 (ip), vehicle: other
  T/C: 95 % of control
dose: 170.0 mg/kg/injection, schedule: Q01DX001 (ip), vehicle: other
  T/C: 100 % of control
dose: 170.0 mg/kg/injection, schedule: Q01DX001 (ip), vehicle: saline with Tween-80
  T/C: 100 % of control

## COc1cc2c(cc1OC)C1CC(O)(c3nccc4cc(OC)c(OC)cc34)CCN1CC2 (stereo not drawn)
[2]
  T/C: 91 % of control
[1]
  T/C: 91 % of control
[3]
  T/C: 87 % of control

## Clc1nc2nsnc2nc1Cl
dose: 6.25 mg/kg/injection, schedule: Q04DX003 (ip), vehicle: saline with Tween-80
  T/C: 101 % of control
[14]
  T/C: 104 % of control
dose: 12.5 mg/kg/injection, schedule: Q04DX003 (ip), vehicle: saline with Tween-80
  T/C: 94 % of control and 115 % of control
[10]
  T/C: 98 % of control
[13]
  T/C: 101 % of control and 107 % of control
[2]
  T/C: 107 % of control
[11]
  T/C: 97 % of control and 107 % of control
[1]
  T/C: 122 % of control
[7]
  T/C: 105 % of control
[3]
  T/C: 118 % of control
[8]
  T/C: 110 % of control and 112 % of control
[12]
  T/C: 115 % of control
[4]
  T/C: 105 % of control

## CCC1OC(=O)C(C)C(OC2CC(C)(O)C(O)C(C)O2)C(C)C(O)C(C)(O)CC(C)C(=O)C(C)C(O)C1C (stereo not drawn)
dose: 100.0 mg/kg/injection, schedule: Q01DX009 (ip), vehicle: saline
  T/C: 100 % of control
dose: 200.0 mg/kg/injection, schedule: Q01DX009 (ip), vehicle: saline
  T/C: 94 % of control

## COc1cc2c(c(OC)c1OC)CC/C(=C\O)C2=O
dose: 50.0 mg/kg/injection, schedule: Q01DX009 (ip), vehicle: Klucel (hydroxypropylcellulose) (HPC)
  T/C: 112 % of control
dose: 100.0 mg/kg/injection, schedule: Q01DX009 (ip), vehicle: Klucel (hydroxypropylcellulose) (HPC)
  T/C: 114 % of control
dose: 200.0 mg/kg/injection, schedule: Q01DX009 (ip), vehicle: Klucel (hydroxypropylcellulose) (HPC)
  T/C: 106 % of control

## CCOC(=O)CN1CCC2CC1c1c([nH]c3ccccc13)C21OCCO1 (stereo not drawn)
dose: 0.06 mg/kg/injection, schedule: Q01DX009 (ip), vehicle: saline
  T/C: 105 % of control
dose: 0.12 mg/kg/injection, schedule: Q01DX009 (ip), vehicle: saline
  T/C: 95 % of control
dose: 0.25 mg/kg/injection, schedule: Q01DX009 (ip), vehicle: saline
  T/C: 100 % of control
dose: 0.5 mg/kg/injection, schedule: Q01DX009 (ip), vehicle: saline
  T/C: 105 % of control
dose: 1.0 mg/kg/injection, schedule: Q01DX009 (ip), vehicle: saline
  T/C: 105 % of control
dose: 2.0 mg/kg/injection, schedule: Q01DX009 (ip), vehicle: saline
  T/C: 100 % of control
dose: 8.0 mg/kg/injection, schedule: Q01DX009 (ip), vehicle: saline
  T/C: 98 % of control
dose: 16.0 mg/kg/injection, schedule: Q01DX009 (ip), vehicle: saline
  T/C: 102 % of control
dose: 32.0 mg/kg/injection, schedule: Q01DX009 (ip), vehicle: saline
  T/C: 104 % of control
